The molecules below were run against T1, human kinase Mps-1 (Homo sapiens, UniProt P33981) (assay: Mps-1 kinase assay (TR-FRET)). Settings: GST-tagged human full length recombinant Mps-1; 10 μM ATP; 1 μM peptide substrate; 60 min at 22° C.
T1 construct: N-terminally GST-tagged human full length recombinant Mps-1 kinase; GST (N); purchased Invitrogen, Karslruhe, Germany PV4071
T1 sequence (P33981 1-857): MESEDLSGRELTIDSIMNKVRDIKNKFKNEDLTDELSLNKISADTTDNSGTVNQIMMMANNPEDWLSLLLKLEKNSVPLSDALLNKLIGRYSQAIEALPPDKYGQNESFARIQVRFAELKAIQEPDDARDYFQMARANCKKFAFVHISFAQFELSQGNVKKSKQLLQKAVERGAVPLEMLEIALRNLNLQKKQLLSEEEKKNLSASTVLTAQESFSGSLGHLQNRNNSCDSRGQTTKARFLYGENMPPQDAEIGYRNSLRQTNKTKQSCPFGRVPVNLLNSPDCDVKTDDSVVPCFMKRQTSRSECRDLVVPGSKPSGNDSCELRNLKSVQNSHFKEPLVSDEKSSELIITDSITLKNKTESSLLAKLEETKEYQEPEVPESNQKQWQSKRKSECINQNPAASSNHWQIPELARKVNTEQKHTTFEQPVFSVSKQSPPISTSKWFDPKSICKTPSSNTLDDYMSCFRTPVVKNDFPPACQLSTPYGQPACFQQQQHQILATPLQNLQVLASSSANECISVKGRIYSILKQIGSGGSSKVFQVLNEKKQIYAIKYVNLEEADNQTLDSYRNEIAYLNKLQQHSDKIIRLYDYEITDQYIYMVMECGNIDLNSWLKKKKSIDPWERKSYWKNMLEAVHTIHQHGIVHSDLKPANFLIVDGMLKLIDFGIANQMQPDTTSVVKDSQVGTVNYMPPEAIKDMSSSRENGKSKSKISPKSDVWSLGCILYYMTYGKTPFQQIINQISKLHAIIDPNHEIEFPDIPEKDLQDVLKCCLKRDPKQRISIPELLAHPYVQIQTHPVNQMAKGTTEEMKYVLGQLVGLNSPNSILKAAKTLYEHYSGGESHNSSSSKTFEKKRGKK
Format: biochemical
Method: The human kinase Mps-1 phosphorylates a biotinylated substrate peptide. Detection of the phosphorylated product is achieved by time-resolved fluorescence resonance energy transfer (TR-FRET) from Europium-labelled anti-phospho-Serine/Threonine antibody as donor to streptavidin labelled with cross-linked allophycocyanin (SA-XLent) as acceptor. Compounds are tested for their inhibition of the kinase activity.
N-terminally GST-tagged human full length recombinant Mps-1 kinase (purchased from Invitrogen, Karslruhe, Germany, cat. no PV4071) was used. As substrate for the kinase reaction a biotinylated peptide of the amino-acid sequence […] (C-terminus in amide form, purchased from Biosynthan GmbH, Berlin) was used.
The concentration of Mps-1 in the assay was adjusted to the activity of the enzyme lot and was chosen appropriate to have the assay in the linear range, typical enzyme concentrations were in the range of about 1 nM (final conc. in the 5 μl assay volume).
The resulting mixture was incubated 1 h at 22° C. to allow the binding of the phosphorylated peptide to the anti-phospho(Ser/Thr)-Europium-antibody. Subsequently the amount of phosphorylated substrate was evaluated by measurement of the resonance energy transfer from the Europium-labelled anti-phospho(Ser/Thr) antibody to the Streptavidin-XLent. Therefore, the fluorescence emissions at 620 nm and 665 nm after excitation at 350 nm was measured in a Viewlux TR-FRET reader (PerkinElmer LAS, Rodgau-Jügesheim, Germany). The “blank-corrected normalized ratio” (a Viewlux specific readout, similar to the traditional ratio of the emissions at 665 nm and at 622 nm, in which blank and Eu-donor crosstalk are subtracted from the 665 nm signal before the ratio is calculated) was taken as the measure for the amount of phosphorylated substrate.

Row | SMILES | IC50
1 | Cc1ccc(-c2cn3c(-c4ccc(C(=O)NC5CC5)cc4)cnc3c(NCC(C)C)n2)cn1 [Example 1-20, N-cyclopropyl-4-{8-[(2-methylpropyl)amino]-6-(6-methylpyridin-3-yl)imidazo[1,2-a]pyrazin-3-yl}benzamide] | 2.9 nM
2 | CCOC(C)CNc1nc(-c2ccncc2)cn2c(-c3ccc(C(=O)NC4CC4)cc3)cnc12 (stereo not shown) [Example 3-30, N-cyclopropyl-4-{8-[(2-ethoxypropyl)amino]-6-(pyridin-4-yl)imidazo [1,2-a]pyrazin-3-yl} benzamide] | 7.1 nM
3 | CNC(=O)CCCCc1cn2c(-c3ccc(C(=O)NC4CC4)cc3)cnc2c(NCC(C)C)n1 [Example 7-5, N-cyclopropyl-4-{6-[5-(methylamino)-5-oxopentyl]-8-[(2-methylpropyl)amino]imidazo[1,2-a]pyrazin-3-yl} benzamide] | 6.5 nM
4 | CC(C)CNc1nc(-c2ccnn2C)cn2c(-c3ccc(C(=O)NC4CC4)cc3)cnc12 [Example 1-13, N-cyclopropyl-4-{8-[(2-methylpropyl)amino]-6-(1-methyl-1H-pyrazol-5-yl)imidazo[1,2-a]pyrazin-3-yl}benzamide] | 29.5 nM
5 | CC(C)CNc1nc(C2=CCOCC2)cn2c(-c3ccc(C(=O)NC4CC4)c(Cl)c3)cnc12 [Example 1-35, 2-chloro-N-cyclopropyl-4-{6-(3,6-dihydro-2H-pyran-4-yl)-8-[(2-methyl-propyl)amino]imidazo [1,2-a]pyrazin-3-yl} benzamide] | 11.4 nM
6 | NC/C=C/CCNc1nc(-c2ccccc2)cn2c(-c3ccc(C(=O)NC4CC4)cc3)cnc12 [Example 4-2, 4-(8-{[(3E)-5-aminopent-3-en-1-yl]amino}-6-phenylimidazo[1,2-a]pyrazin-3-yl)-N-cyclopropylbenzamide] | 4.4 nM
7 | CC(C)(O)CNc1nc(-c2ccn[nH]2)cn2c(-c3ccc(C(=O)NC4CC4)c(F)c3)cnc12 [Example 1-59, N-cyclopropyl-2-fluoro-4-{8-[(2-hydroxy-2-methylpropyl)amino]-6-(1H-pyrazol-5-yl)imidazo [1,2-a]pyrazin-3-yl} benzamide] | 101 nM
8 | Cc1cc(-c2cnc3c(NCCC(F)(F)F)nc(CN)cn23)ccc1C(=O)NC1CC1 [Example 10-1, 4-{6-(aminomethyl)-8-[(3,3,3-trifluoropropyl)amino]imidazo[1,2-a]pyrazin-3-yl}-N-cyclopropyl-2-methylbenzamide] | 82.9 nM
9 | CC(C)CNc1nc(-c2ccc(F)nc2)cn2c(-c3ccc(C(=O)NC4CC4)cc3)cnc12 [Example 1-5, N-cyclopropyl-4-{6-(6-fluoropyridin-3-yl)-8-[(2-methylpropyl)amino]imidazo[1,2-a]pyrazin-3-yl}benzamide] | 4.2 nM
10 | O=C(NC1CC1)c1ccc(-c2cnc3c(NCCc4nccs4)nc(-c4ccncc4)cn23)cc1 [Example 3-34, N-cyclopropyl-4-[6-(pyridin-4-yl)-8-{[2-(1,3-thiazol-2-yl)ethyl]amino}imidazo[1,2-a]pyrazin-3-yl]benzamide] | 8.2 nM
11 | CC(C)CNc1nc(N2CCCCS2(=O)=O)cn2c(-c3ccc(C(=O)NC4CC4)cc3)cnc12 [Example 12-1, N-cyclopropyl-4-{6-(1,1-dioxido-1,2-thiazinan-2-yl)-8-[(2-methylpropyl)amino]imidazo[1,2-a]pyrazin-3-yl}benzamide] | 6.5 nM
12 | CC(C)(O)CNc1nc(-c2ccoc2)cn2c(-c3ccc(C(=O)NC4CC4)c(F)c3)cnc12 [Example 1-58, N-cyclopropyl-2-fluoro-4-{6-(furan-3-yl)-8-[(2-hydroxy-2-methyl-propyl)amino]imidazo [1,2-a]pyrazin-3-yl} benzamide] | 23.1 nM
13 | Cc1cc(-c2cnc3c(NCCC(F)(F)F)nc(-c4cccn4C)cn23)ccc1C(=O)NC1CC1 [Example 1-75, N-cyclopropyl-2-methyl-4-{6-(1-methyl-1H-pyrrol-2-yl)-8-[(3,3,3-trifluoro-propyl)amino]imidazo [1,2-a]pyrazin-3-yl} benzamide] | 3.8 nM
14 | CC(C)CNc1nc(-c2cccs2)cn2c(-c3ccc(C(=O)NC4CC4)cc3)cnc12 [Example 1-9, N-cyclopropyl-4-{8-[(2-methylpropyl)amino]-6-(thiophen-2-yl)imidazo [1,2-a]pyrazin-3-yl} benzamide] | 8 nM
15 | COc1cc(C(=O)NC2CC2)ccc1-c1cnc2c(NCCCN)nc(-c3ccnn3C)cn12 [Example 1-102, 4-{8-[(3-Aminopropyl)amino]-6-(1-methyl-1H-pyrazol-5-yl)imidazo[1,2-a]pyrazin-3-yl}-N-cyclopropyl-3-methoxybenzamide] | 531 nM
16 | COCCCNc1nc(-c2ccncc2)cn2c(-c3ccc(C(=O)NC4CC4)cc3)cnc12 [Example 3-24, N-cyclopropyl-4-{8-[(3-methoxypropyl)amino]-6-(pyridin-4-yl)imidazo [1,2-a]pyrazin-3-yl} benzamide] | 5.5 nM
17 | Cn1ccc(CNc2nc(-c3ccncc3)cn3c(-c4ccc(C(=O)NC5CC5)cc4)cnc23)n1 [Example 3-27, N-cyclopropyl-4-[8-{[(1-methyl-1H-pyrazol-3-yl)methyl]amino}-6-(pyridin-4-yl)imidazo [1,2-a]pyrazin-3-yl] benzamide] | 9.8 nM

Stronger by IC50, values ahead:

Row | IC50 | SMILES
18 | 2.8 nM | Cn1nccc1CNc1nc(-c2ccncc2)cn2c(-c3ccc(C(=O)NC4CC4)cc3)cnc12 [Example 3-28, N-cyclopropyl-4-[8-{[(1-methyl-1H-pyrazol-5-yl)methyl]amino}-6-(pyridin-4-yl)imidazo [1,2-a]pyrazin-3-yl] benzamide]
19 | 1.6 nM | O=C(NC1CC1)c1ccc(-c2cnc3c(NCC(O)C(F)(F)F)nc(-c4ccncc4)cn23)cc1 (stereo not shown) [Example 3-21, N-cyclopropyl-4-{6-(pyridin-4-yl)-8-[(3,3,3-tri-fluoro-2-hydroxypropyl)amino]imidazo[1,2-a]pyrazin-3-yl}benzamide]
20 | 2 nM | O=C(NC1CC1)c1ccc(-c2cnc3c(NCc4cccnc4)nc(-c4ccncc4)cn23)cc1 [Example 3-18, N-cyclopropyl-4-{6-(pyridin-4-yl)-8-[(pyridin-3-ylmethyl)amino]imidazo [1,2-a]pyrazin-3-yl} benzamide]
21 | 2.3 nM | O=C(NC1CC1)c1ccc(-c2cnc3c(NCc4ccc(Cl)s4)nc(-c4ccncc4)cn23)cc1 [Example 3-31, 4-[8-{[(5-chlorothiophen-2-yl)methyl]amino}-6-(pyridin-4-yl)imidazo [1,2-a]pyrazin-3-yl]-N-cyclopropylbenzamide]
22 | 2.3 nM | Cc1ccc(-c2cn3c(-c4ccc(C(=O)NC5CC5)cc4)cnc3c(NCC(C)C)n2)cc1CC(N)=O [Example 1-87, 4-{6-[3-(2-amino-2-oxoethyl)-4-methylphenyl]-8-(isobutyl-amino)imidazo[1,2-a]pyrazin-3-yl}-N-cyclopropyl-benzamide]
23 | 1.3 nM | Cc1cc(-c2cnc3c(NCCC(F)(F)F)nc(-c4ccncc4)cn23)ccc1C(=O)NC1CC1 [Example 1-103, N-cyclopropyl-2-methyl-4-{6-(pyridin-4-yl)-8-[(3,3,3-trifluoropropyl)amino]imidazo[1,2-a]pyrazin-3-yl}benzamide]
24 | 1.4 nM | CC(C)CNc1nc(C2=CCOCC2)cn2c(-c3ccc(C(=O)NC4CC4)cc3)cnc12 [Example 1-29, N-cyclopropyl-4-{6-(3,6-dihydro-2H-pyran-4-yl)-8-[(2-methylpropyl)amino]imidazo[1,2-a]pyrazin-3-yl}benzamide]
25 | 2.1 nM | O=C(NC1CC1)c1ccc(-c2cnc3c(NCc4ccncc4)nc(-c4ccncc4)cn23)cc1 [Example 3-19, N-cyclopropyl-4-{6-(pyridin-4-yl)-8-[(pyridin-4-ylmethyl)amino]imidazo [1,2-a]pyrazin-3-yl} benzamide]

From patent US20140135319A1, “6-SUBSTITUTED IMIDAZOPYRAZINES FOR USE AS MPS-1 AND TKK INHIBITORS IN THE TREATMENT OF HYPERPROLIFERATIVE DISORDERS” (BAYER INTELLECTUAL PROPERTY GMBH, priority 2010, published 2014)
